Assays:
[1] = mefloquine enantiomers; cited from earlier work
retina of C57BL/6 mice [2] = assay: Subretinal co-injection of AAV GFP vector and HCQ in mice, OCT retinal thickness; format: in vivo, mouse; conditions: subretinal injection suspension with 3.125 uM or 18.75 uM HCQ, OCT at 2, 4 and 8 weeks
Experimental: (§1) Subretinal injections. 7 week old female C57BL/6 mice were subretinally injected with 1.2 μL vector suspension (1×10^8 genome copies). The vector was prepared with a 3.125 uM or 18.75 uM final concentration of HCQ with control preparations without any HCQ. Animals were injected with an AAV+HCQ preparation in one eye and AAV only in the paired eye.
OCT analysis. Animals were subject to wide-field spectral-domain optical coherence tomography (OCT, Spectralis HRA, Heidelberg Engineering) at 2, 4 and 8 weeks post-injection. Mice were scanned using a 55° lens and 8 radial sections were taken with a real-time average process of 25 frames. The total retinal thickness and the outer limiting membrane (OLM) thickness were manually measured on alternate radial sections using a calliper.

human retinal explants = assay: HCQ effect on AAV transduction in human retinal explants, mean grey value (GFP fluorescence); format: cell-based; conditions: 3.125 uM HCQ, 1×10^9 genome copies rAAV2.CAG.GFP.WPRE.pA, imaged every 2 days for 11 days, n=6, p=0.0213
Experimental: Harvesting tissue. Human retina fragments was extracted during routine retinal surgery in which a retinectomy was required (ethics approved). Fragments of retina were removed via a 23G sclerostomy with vitrectomy cutter (at minimal cut rate) and manual aspiration.
Culturing explants. Within 1 hr of tissue collection, retinal fragments were transferred using a 3 mL Pasteur pipette into individual organotypic culture inserts (BD Falcon), which were in turn placed within a 24-well plate. 400 uL of media was placed beneath the insert and 100 uL of media within the insert. 24 hr after culturing the retinal explants, the media was replaced with media containing 3.125 uM or 18.75 uM of HCQ. The explants were incubated in the HCQ medium for 1 hour prior to transduction with 1×10^9 genome copies of rAAV2.CAG.GFP.WPRE.pA vector. The explants were imaged every 2 days for 11 days and the mean grey value (representative of GFP fluorescence) of the explants was measured using ImageJ software (FIG. 3a).

Primary NHP RPE cells [3] = assay: HCQ effect on AAV transduction in primary NHP RPE cells, GFP qPCR; format: cell-based, Rhesus macaque (M. mullata); conditions: 18.75 μM HCQ, 3 days post-transduction, normalized to β-actin, N=3, p=0.0253
Experimental: (§2) Harvesting non-human primate (NHP) retinal pigment epithelium (RPE) cells. After enucleation, the cornea and lens were removed under direct visualization with a surgical microscope. Radial incisions were made towards the posterior pole to flatten the eyecup. The retina was removed by blunt dissection and the remaining eyecup was placed in media and stored on ice until the RPE cells were removed. RPE cells were detached using the TrypLE cell dissociation reagent and were cultured at 37° C.
(§3) Cell culture. Primary NHP RPE cells were seeded into a 12-well plate. 24 hr after seeding, the cells were incubated in media with 3.125 uM or 18.75 uM of HCQ for 1 hr prior to transduction with 2×10^9 genome copies per well. Cells were imaged 3 days post-transduction.
RNA & protein extraction and cDNA synthesis. The primary NHP RPE were harvested for RNA extraction 3-days post-AAV transduction with HCQ. Total RNA was extracted using the RNeasy Mini Kit (Qiagen) according to the manufacturer's instructions. Copy DNA was synthesised using 850-1500 ng of RNA using the Superscript III Kit (Invitrogen) with an oligo dT primer.
qPCR analysis. qPCR was carried out using TaqMan probes against GFP and β-actin in a CFX Connect thermal cycler (BioRad). GFP expression was normalized to β-actin and represented as a fold change to transduced cells incubated without HCQ.

Primary NHP RPE cells [4] = assay: HCQ effect on AAV transduction in primary NHP RPE cells, GFP protein western blot; format: cell-based, Rhesus macaque (M. mullata); conditions: 18.75 μM HCQ
Experimental: as §2, §3
Protein extraction. The flow through from RNA extraction above was combined with 4 volumes of acetone and incubated on ice for 30 min. Samples were centrifuged at 17,000×g for 30 min, the supernatant was discarded and the pellet washed in 100 μL of ice-cold ethanol. Pellets were resuspended in 1% SDS.
(§4) Western blot. Total protein content in cell lysates was determined using the bicinchoninic acid method. GFP and actin proteins were probed using monoclonal antibodies, and detected using ECL and Odyssey Imaging System (LI-COR). Data analysis was performed using ImageStudio Lite software (LI-COR). GFP band density was normalised to β-actin.

retina of C57BL/6 mice [5] = assay: Subretinal co-injection of AAV GFP vector and HCQ in mice, cSLO fundus autofluorescence; format: in vivo, mouse; conditions: AAV 1×10^8 genome copies with 18.75 uM HCQ, 4 and 8 weeks post-injection
Experimental: as §1
Confocal scanning laser ophthalmoscope (cSLO) analysis. Standardized mouse autofluorescence (AF) imaging using a cSLO (Spectralis HRA, Heidelberg Engineering) was performed in all animals according to previously published protocol. All images were recorded using the 55° lens of the Spectralis HRA at 2, 4 and 8 weeks post-injection. Images were recorded using a standardized signal detector sensitivity. For quantitative analysis of fundus AF, the mean grey level was measured within a ring-shaped area located at radii between 350 and 860 pixels from the optic disc centre using ImageJ software (NIH).

[6] = tested on: Wildtype (WT) mouse embryonic fibroblasts (MEFs); assay: HCQ effect on AAV (rAAV2.CAG.GFP.WPRE.pA) transduction in MEFs, flow cytometry GFP / 7-AAD; format: cell-based
Experimental: Cell culture. Wildtype (WT) mouse embryonic fibroblasts (MEFs) were seeded into 6-well plates. 24 hr after seeding the cells were incubated in culture media with HCQ concentrations of 3.125-50 uM for 1 hr prior to transduction with a rAAV2.CAG.GFP.WPRE.pA vector at a MOI of 1000. The cells were cultured in HCQ containing media until harvesting. Cells were imaged 3 days post-transduction (FIG. 1A).
Flow cytometry analysis. Cells were processed 3 days post-transduction and stained with the cell viability dye 7-AAD for 5 minutes prior to flow cytometry analysis. Fluorescent light was measured by a BD LSRFortessa flow cytometer using a blue laser with the bandpass filters 695 nm/[…] and 530 nm/[…] to detect the fluorochromes of 7-AAD and GFP, respectively (FIG. 1a).

Mouse retinas = assay: Subretinal co-injection of AAV GFP vector and HCQ in mice, GFP western blot of retinas; format: in vivo; conditions: 18.75 μM HCQ
Experimental: as §1
Protein extraction. Mouse retinas were thawed on ice and lysed in 1× RIPA buffer+protease inhibitors. The retinas were homogenised using a hand-held homogeniser and incubated on ice for 30 mins. The samples were centrifuged at 17,000×g at 4° C. for 20 mins. The supernatant was transferred to a new tube and kept on ice.
as §4, with “blot (WB).” for “blot.”, “actin.” for “β-actin.”

Row | Structure (SMILES) | half-life compared with the other enantiomer [1] | mean retinal thickness or retinal morphology, groups with and without HCQ (retina of C57BL/6 mice [2]) | increase in mean grey value (representative of GFP fluorescence) compared to no HCQ (human retinal explants) | GFP mRNA expression, fold change to transduced cells incubated without HCQ (Primary NHP RPE cells [3]) [fold] | GFP protein expression increase compared to transduced cells incubated without HCQ (Primary NHP RPE cells [4]; 3 days post-transduction (FIGS. 2a and 2b)) [fold] | GFP protein expression improvement by western blot (Primary NHP RPE cells [4]; N=2, GFP band density normalised to β-actin (FIG. 2c)) | increase in mean grey value of fundus AF images (surrogate measure of GFP expression) compared to control eyes injected with AAV only (retina of C57BL/6 mice [5]) [fold] | HCQ concentration that induces cell death ([6]; 7-AAD viability dye, 3 days post-transduction) [µM] | number of GFP expressing cells ([6]; HCQ 3.125-50 uM from 1 hr before transduction, rAAV2.CAG.GFP.WPRE.pA MOI 1000, 3 days post-transduction) | GFP signal detected by WB compared to the 0 μM HCQ paired eye (Mouse retinas)
1 | O[C@H](c1cc(C(F)(F)F)nc2c(C(F)(F)F)cccc12)[C@@H]1CCCCN1 (single isomer, unassigned) [(+)-enantiomer] | shorter | – | – | – | – | – | – | – | – | –
2 | CCN(CCO)CCCC(C)Nc1ccnc2cc(Cl)ccc12 (stereo not shown) [HCQ, 2-[{4-[(7-chloroquinolin-4-yl)amino]pentyl}(ethyl)amino]ethanol] | – | no significant difference | up to 2 fold | 3 | 19 | approximately 4 fold | 2 | ≥ 25 | increase the number of GFP expressing cells up to 18.75 uM | increase in the GFP signal

— patent US20210038591A1, “VIRAL VECTOR TRANSDUCTION” (Oxford University Innovation Limited, priority 2018, published 2021)
